Data published in ChEMBL document CHEMBL5230085, “Design, synthesis, and biological characterization of a new class of symmetrical polyamine-based small molecule CXCR4 antagonists” (Eur J Med Chem, 2020).
Active and inactive are the calls of the source. No cut-off for these calls is given here.

Key:
[1] = biological target: T1, C-X-C chemokine receptor type 4 (Homo sapiens, UniProt P61073); assay: Binding affinity to CXCR4 (unknown origin) expressed in CHO cells incubated for 40 mins by competitive binding assay method; type: cell-based
[2] = biological target: T1, C-X-C chemokine receptor type 4; assay: Binding affinity to CXCR4 (unknown origin); conditions: filed as antagonist
[3] = biological target: T1, C-X-C chemokine receptor type 4; assay: Antagonist activity at CXCR4 receptor in SDF-1alpha-stimulated human SUP-T1 cells incubated for 30 mins by calcium mobilization assay; type: cell-based
[4] = system: C-X-C chemokine receptor type 4 (Homo sapiens), P61073 [W195A]; assay: Binding affinity to CXCR4 W195A mutant (unknown origin) assessed as reduction in potency; parameters: scale not given: the % may be the effect or the level left; conditions: filed as antagonist
[5] = system: C-X-C chemokine receptor type 4 (Homo sapiens), P61073 [E288D]; assay: Binding affinity to CXCR4 E288D mutant (unknown origin) by 12G5 competitive binding assay
[6] = system: C-X-C chemokine receptor type 4 (Homo sapiens), P61073 [R30A]; assay: Binding affinity to N-terminus CXCR4 R30A mutant (unknown origin)
[7] = system: C-X-C chemokine receptor type 4 (Homo sapiens), P61073 [H113A]; assay: Binding affinity to N-terminus CXCR4 H113A mutant (unknown origin)
CEM-GFP = assay: Cytotoxicity against human CEM-GFP cells assessed as cell viability at 10 uM incubated for 5 days by Celltiter-blue assay method; type: functional, cell-based; conditions: time 5.0 day
[8] = system: C-X-C chemokine receptor type 4 (Homo sapiens), P61073 [D262A]; assay: Binding affinity to N-terminus CXCR4 D262A mutant (unknown origin)
[9] = Antiviral activity against HIV1 NL4-3 infected in human CEM-GFP cells assessed as inhibition in viral growth measured after 5 days by 96-well plate assay method; type: functional, cell-based; conditions: NL4-3, CEM-GFP, 120 h
[10] = system: C-X-C chemokine receptor type 4 (Homo sapiens), P61073 [D193A]; assay: Binding affinity to CXCR4 D193A mutant (unknown origin) assessed as reduction in potency; parameters: scale not given: the % may be the effect or the level left; conditions: filed as antagonist
[11] = system: C-X-C chemokine receptor type 4 (Homo sapiens), P61073 [E288D]; assay: Binding affinity to CXCR4 E288D mutant (unknown origin) by competitive binding assay method; conditions: filed as antagonist

T1 sequence (P61073 whole entry): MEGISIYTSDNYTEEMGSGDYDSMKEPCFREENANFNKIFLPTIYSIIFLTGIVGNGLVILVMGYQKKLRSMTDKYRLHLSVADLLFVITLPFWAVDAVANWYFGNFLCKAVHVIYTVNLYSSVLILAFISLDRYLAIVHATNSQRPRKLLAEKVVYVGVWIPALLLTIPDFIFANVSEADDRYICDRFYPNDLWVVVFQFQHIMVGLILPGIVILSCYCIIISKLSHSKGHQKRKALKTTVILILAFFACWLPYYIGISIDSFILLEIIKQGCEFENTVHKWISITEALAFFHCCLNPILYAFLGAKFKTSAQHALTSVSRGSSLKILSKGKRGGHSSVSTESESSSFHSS
Chain of C-X-C chemokine receptor type 4 (Homo sapiens), P61073 [E288D] (P61073 whole entry E288D): as the sequence (P61073 whole entry) above, with E288D counted along it
Chain of C-X-C chemokine receptor type 4 (Homo sapiens), P61073 [D262A] (P61073 whole entry D262A): as the sequence (P61073 whole entry) above, with D262A counted along it
Chain of C-X-C chemokine receptor type 4 (Homo sapiens), P61073 [W195A] (P61073 whole entry W195A): as the sequence (P61073 whole entry) above, with W195A counted along it
Chain of C-X-C chemokine receptor type 4 (Homo sapiens), P61073 [H113A] (P61073 whole entry H113A): as the sequence (P61073 whole entry) above, with H113A counted along it
Chain of C-X-C chemokine receptor type 4 (Homo sapiens), P61073 [R30A] (P61073 whole entry R30A): as the sequence (P61073 whole entry) above, with R30A counted along it
Chain of C-X-C chemokine receptor type 4 (Homo sapiens), P61073 [D193A] (P61073 whole entry D193A): as the sequence (P61073 whole entry) above, with D193A counted along it

SMILES	IC50 [1] [µM]	further results
O=C(NCCCNC1CCCCC1)c1ccc(C(=O)NCCCNC2CCCCC2)cc1	1.7	
CNc1cc(CNCCCNC2CCCCC2)cc(CNCCCNC2CCCCC2)c1	0.0676	
c1ccc(CNCc2ccc(CNCc3ccccn3)cc2)nc1	> 10	
c1cc(CNC2CCCCC2)ccc1CNC1CCCCC1	> 10	
c1cc(CNCCCNC2CCCCC2)ccc1CNCCCNC1CCCCC1	0.0198	Activity [2]: 60%; IC50 [3]: 0.119 µM; Activity [4]: 10%; Activity [5]: 30%; Activity [6]: inactive; Activity [7]: inactive; Activity (CEM-GFP): Not toxic; Activity [8]: inactive; IC50 [9]: 1.5 µM; Activity [10]: 10%; Activity [11]: 40%
Nc1cc(CNCCCNC2CCCCC2)cc(CNCCCNC2CCCCC2)c1	0.0812	
c1cc(CNCCCNC2CCCCC2)ncc1CNCCCNC1CCCCC1	0.194	
c1cc(CNCCCNC2CCCCC2)nc(CNCCCNC2CCCCC2)c1	0.122	
Nc1cc(CNCCCNC2CCCCC2)ccc1CNCCCNC1CCCCC1	0.0689	
O=C(NCCCNC1CCCCC1)c1ccc(CNCCCNC2CCCCC2)cc1	0.699	
CN(C)c1cc(CNCCCNC2CCCCC2)ccc1CNCCCNC1CCCCC1	0.048	
O=[N+]([O-])c1cc(CNCCCNC2CCCCC2)ccc1CNCCCNC1CCCCC1	0.354	
c1ccc2c(CNCCCNC3CCCCC3)ccc(CNCCCNC3CCCCC3)c2c1	0.0408	
c1c(CNCCCNC2CCCCC2)cc(CNCCCNC2CCCCC2)cc1CNCCCNC1CCCCC1	0.312	
c1cc(CNCCCNC2CCCCC2)cc(CNCCCNC2CCCCC2)c1	0.155	
c1cc(-c2ccc(CNCCCNC3CCCCC3)cc2)ccc1CNCCCNC1CCCCC1	0.0675	
O=[N+]([O-])c1cc(CNCCCNC2CCCCC2)cc(CNCCCNC2CCCCC2)c1	0.147	
CN(C)c1cc(CNCCCNC2CCCCC2)cc(CNCCCNC2CCCCC2)c1	0.119	
